US5945434A, “Indazole derivatives having monocyclic amine” (Nisshin Flour Milling Co., Ltd., priority 1995, dated 1999)
pEC50: −log10 of the molar value.

Target: T1, 5-HT4 receptor (rat oesophageal tunica muscularis mucosae) (Rattus norvegicus, UniProt Q62758)
T1 construct: oesophageal tunica muscularis mucosae excised from rats; from tissue; host or cells: rat oesophageal tunica muscularis mucosae
Experiment: 5-HT4 agonist activity: relaxation of carbachol-contracted rat oesophageal tunica muscularis mucosae
Assay type: cell-based
Details: not given
Procedure: The agonist activities of the indazole derivatives of the present invention and Mosapride were determined by the following method, that is, the method determining 5-HT4 agonist activity by using rat oesophageal tunica muscularis mucosae (Naunyn-Schmiedeberg's Arch. Pharmacol., Vol. 343, 439-446, 1991).
According to the method of the literature, the oesophageal tunica muscularis mucosae excised from rats were suspended in an organ bath containing Krebs-Henseleit solution aerated with a mixed gas (95% O2, 5% CO2) and contracted with carbachol (1×10^-6 M). After the contraction was stabilized, the cumulative administration of the compounds was performed to determine the relaxation of the rat oesophagus pre-contracted with carbachol. The concentration (ED50) to cause 50% relaxation of the carbachol-induced contraction was measured. The result is expressed in terms of -log ED50 and shown in the following table in which higher numerical value indicates higher activity.

T1 sequence (Q62758 whole entry): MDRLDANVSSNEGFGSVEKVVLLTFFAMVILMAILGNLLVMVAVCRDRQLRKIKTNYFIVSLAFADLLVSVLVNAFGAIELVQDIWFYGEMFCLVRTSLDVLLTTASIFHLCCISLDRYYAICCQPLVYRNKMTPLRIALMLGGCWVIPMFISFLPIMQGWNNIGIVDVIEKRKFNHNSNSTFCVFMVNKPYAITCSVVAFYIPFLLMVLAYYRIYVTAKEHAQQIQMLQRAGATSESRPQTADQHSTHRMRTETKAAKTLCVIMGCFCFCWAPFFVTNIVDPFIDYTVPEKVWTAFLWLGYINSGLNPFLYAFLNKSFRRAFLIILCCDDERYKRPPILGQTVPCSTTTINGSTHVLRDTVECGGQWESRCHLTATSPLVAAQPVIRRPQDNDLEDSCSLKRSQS

SMILES | pEC50
CCCCN1CCN(CCCNC(=O)c2nn(CCC)c3ccccc23)CC1 [Compound 1, N-[3-(4-n-Butyl-1-piperazinyl)propyl]-1-n-propylindazole-3-carboxamide] | 4.98
CCCn1nc(C(=O)NCCN2CCN(C)CC2)c2ccccc21 [Compound 2, N-[2-(4-Methyl-1-piperazinyl)ethyl]-1-n-propylindazole-3-carboxamide] | 4.69
CCCCN1CCN(CCNC(=O)c2nn(CCC)c3ccccc23)CC1 [Compound 3, N-[2-(4-n-Butyl-1-piperazinyl)ethyl]-1-n-propylindazole-3-carboxamide] | 5.62
CCCn1nc(C(=O)NCC=C2CCN(C)CC2)c2ccccc21 [Compound 4, N-[2-(1-Methyl-4-piperidylidene)ethyl]-1-n-propylindazole-3-carboxamide] | 5.01
CCCCN1CCC(=CCNC(=O)c2nn(CCC)c3ccccc23)CC1 [Compound 5, N-[2-(1-n-Butyl-4-piperidylidene)ethyl]-1-n-propylindazole-3-carboxamide] | 6.36
CCCCN1CCCC(NC(=O)c2nn(CCC)c3ccccc23)CCC1 [Compound 6, N-(1-n-Butyl-5-octahydroazocinyl)-1-n-propylindazole-3-carboxamide] | 5.19
CCCn1nc(C(=O)NCC2CCN(C)CC2)c2ccccc21 [Compound 7, N-(1-Methyl-4-piperidyl)methyl-1-n-propylindazole-3-carboxamide] | 5.30
CCCn1nc(C(=O)NCCC2CCN(C)CC2)c2ccccc21 [Compound 8, N-[2-(1-Methyl-4-piperidyl)ethyl]-1-n-propylindazole-3-carboxamide] | 4.97
CCCn1nc(C(=O)NCC=C2CCN(Cc3ccc(F)cc3)CC2)c2ccccc21 [Compound 12, N-[2-(1-p-Fluorobenzyl-4-piperidylidene)ethyl]-1-n-propylindazole-3-carboxamide] | 5.47
CCCCN1CCN(CCNC(=O)c2nn(C(C)CC)c3ccccc23)CC1 (stereo not drawn) [Compound 13, N-[2-(4-n-Butyl-1-piperazinyl)ethyl]-1-sec-butylindazole-3-carboxamide] | 5.26
CCCCN1CCN(CCNC(=O)c2nn(C(CC)CC)c3ccccc23)CC1 [Compound 14, N-[2-(4-n-Butyl-1-piperazinyl)ethyl]-1-(3-pentyl)indazole-3-carboxamide] | 5.22
CCCn1nc(C(=O)NCCN2CCN(Cc3ccc(F)cc3)CC2)c2ccccc21 [Compound 15, N-[2-(4-p-Fluorobenzyl-1-piperazinyl)ethyl]-1-n-propylindazole-3-carboxamide] | 5.17
C=CCn1nc(C(=O)NCCN2CCN(Cc3ccc(F)cc3)CC2)c2ccccc21 [Compound 16, N-[2-(4-p-Fluorobenzyl-1-piperazinyl)ethyl]-1-allylindazole-3-carboxamide] | 5.13
CCCn1nc(C(=O)NC2CCN(Cc3ccccc3)CC2)c2ccccc21 [Compound 17, N-(1-Benzyl-4-piperidyl)-1-n-propylindazole-3-carboxamide] | 5.47
CCCCN1CCC(CNC(=O)c2nn(CCC)c3ccccc23)CC1 [Compound 18, N-(1-n-Butyl-4-piperidyl)methyl-1-n-propylindazole-3-carboxamide] | 5.10
CCCCN1CCC(CCNC(=O)c2nn(CCC)c3ccccc23)CC1 [Compound 19, N-[2-(1-n-Butyl-4-piperidyl)ethyl]-1-n-propylindazole-3-carboxamide] | 5.89
CCCn1nc(C(=O)NC2CCNCC2)c2ccccc21 [Compound 20, N-(4-Piperidyl)-1-n-propylindazole-3-carboxamide] | 3.95
CCCn1nc(C(=O)NCC2CCNCC2)c2ccccc21 [Compound 21, N-(4-Piperidyl)methyl-1-n-propylindazole-3-carboxamide] | 4.32
CCCn1nc(C(=O)NC2CCN(C)CC2)c2ccccc21 [Compound 22, N-(1-Methyl-4-piperidyl)-1-n-propylindazole-3-carboxamide] | 5.16
CCCCN1CCC(NC(=O)c2nn(CCC)c3ccccc23)CC1 [Compound 23, N-(1-n-Butyl-4-piperidyl)-1-n-propylindazole-3-carboxamide] | 5.55
C=CCN1CCN(CCNC(=O)c2nn(CCC)c3ccccc23)CC1 [Compound 25, N-[2-(4-Allyl-1-piperazinyl)ethyl]-1-n-propylindazole-3-carboxamide] | 5.22
CCCN1CCN(CCNC(=O)c2nn(CCC)c3ccccc23)CC1 [Compound 26, N-[2-(4-n-Propyl-1-piperazinyl)ethyl]-1-n-propylindazole-3-carboxamide] | 5.05
CCCCCN1CCN(CCNC(=O)c2nn(CCC)c3ccccc23)CC1 [Compound 27, N-[2-(4-n-Pentyl-1-piperazinyl)ethyl]-1-n-propylindazole-3-carboxamide] | 5.57
CCCn1nc(C(=O)NCCN2CCN(Cc3ccc(OC)cc3)CC2)c2ccccc21 [Compound 28, N-[2-(4-p-Methoxybenzyl-1-piperazinyl)ethyl]-1-n-propylindazole-3-carboxamide] | 5.80
CCCCN1CCN(CCNC(=O)c2nn(CC)c3ccccc23)CC1 [Compound 29, N-[2-(4-n-Butyl-1-piperazinyl)ethyl]-1-ethylindazole-3-carboxamide] | 4.99
CCCCN1CCN(CCNC(=O)c2nn(C(C)C)c3ccccc23)CC1 [Compound 30, N-[2-(4-n-Butyl-1-piperazinyl)ethyl]-1-isopropylindazole-3-carboxamide] | 5.53
CCCCN1CCN(CCNC(=O)c2nn(C3CCCC3)c3ccccc23)CC1 [Compound 31, N-[2-(4-n-Butyl-1-piperazinyl)ethyl]-1-cyclopentylindazole-3-carboxamide] | 5.30

Same assay, conditions: concentration causing 50% relaxation of the carbachol (1×10^-6 M)-induced contraction; cumulative administration; read-out: Activity (-log ED50) (converted)

SMILES | EC50 [µM]
O=C(NCC=C1CCN(Cc2ccc(F)cc2)CC1)c1n[nH]c2ccccc12 [Compound 9, N-[2-(1-p-Fluorobenzyl-4-piperidylidene)ethyl]-1H-indazole-3-carboxamide] | 7.41
O=C(NCCN1CCN(Cc2ccc(F)cc2)CC1)c1n[nH]c2ccccc12 [Compound 11, N-[2-(4-p-Fluorobenzyl-1-piperazinyl)ethyl]-1H-indazole-3-carboxamide] | 12.6
CCCCN1CCN(CCNC(=S)c2nn(CCC)c3ccccc23)CC1 [Compound 32, N-[2-(4-n-Butyl-1-piperazinyl)ethyl]-1-n-propylindazole-3-thiocarboxamide] | 10.5
CCCCN1CCN(CCNCc2nn(CCC)c3ccccc23)CC1 [Compound 33, 3-{N-[2-(4-n-Butyl-1-piperazinyl)ethyl]aminomethyl}-1-n-propylindazole] | 29.5

System: 5-HT4 receptor
Experiment: not given
Details: WO 9303725; cited from earlier work

SMILES | 5-HT4 receptor antagonist activity (in words)
CCCCN1CCC(COC(=O)c2nn(C)c3ccccc23)CC1 [(1-butyl-4-piperidyl)methyl-1-methylindazole-3-carboxylate] | has a 5-HT4 receptor antagonist activity

System: not given
Experiment: not given
Details: U.S. Pat. No. 3,145,215; cited from earlier work

SMILES | hypotensive activity (in words)
CN1CCN(CCNC(=O)c2n[nH]c3ccccc23)CC1 [N-[2-(4-methyl-1-piperazinyl)ethyl]-1H-indazole-3-carboxamide] | has hypotensive activity
